Source: PubChem BioAssay AID256 (DTP/NCI, 2004)
Toxic doses and inconclusive results are not listed. Rule for the calls: active = survival T/C of 150% or more; inactive = T/C below 125% in these data.

System: CD2F1 mice, L1210 leukemia ip, survival T/C
Assay: NCI In Vivo Anticancer Drug Screen. Data for tumor model L1210 Leukemia (intraperitoneal) in CD2F1 (CDF1) mice
Conditions: higher = longer survival
Procedure, shortened: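 Activity against a transplanted murine tumor was judged by comparing the compound group with a vehicle group. The outcome in the treated animals was divided by that in the controls.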

[1] = endpoint: mean survival time, dose: 100.0 mg/kg/injection, schedule: Q01DX001 (ip), vehicle: saline with Tween-80
[2] = endpoint: mean survival time, dose: 200.0 mg/kg/injection, schedule: Q01DX001 (ip), vehicle: saline with Tween-80
[3] = endpoint: mean survival time, dose: 400.0 mg/kg/injection, schedule: Q01DX001 (ip), vehicle: saline with Tween-80
[4] = endpoint: mean survival time, dose: 25.0 mg/kg/injection, schedule: Q01DX009 (ip), vehicle: saline with Tween-80
[5] = endpoint: mean survival time, dose: 50.0 mg/kg/injection, schedule: Q01DX009 (ip), vehicle: saline with Tween-80
[6] = endpoint: mean survival time, dose: 100.0 mg/kg/injection, schedule: Q01DX009 (ip), vehicle: saline with Tween-80
[7] = endpoint: mean survival time, dose: 6.25 mg/kg/injection, schedule: Q01DX009 (ip), vehicle: saline
[8] = endpoint: mean survival time, dose: 12.5 mg/kg/injection, schedule: Q01DX009 (ip), vehicle: saline
[9] = endpoint: mean survival time, dose: 100.0 mg/kg/injection, schedule: Q04DX003 (ip), vehicle: saline with Tween-80
[10] = endpoint: mean survival time, dose: 200.0 mg/kg/injection, schedule: Q04DX003 (ip), vehicle: saline with Tween-80
[11] = endpoint: mean survival time, dose: 400.0 mg/kg/injection, schedule: Q04DX003 (ip), vehicle: saline with Tween-80
[12] = endpoint: mean survival time, dose: 200.0 mg/kg/injection, schedule: Q01DX009 (ip), vehicle: saline with Tween-80

Measured: T/C

CN(C)CCNc1cccc2c1C(=O)c1cccc(NCCN(C)C)c1C2=O
inactive: endpoint: mean survival time, dose: 1.88 mg/kg/injection, schedule: Q01DX009 (ip), vehicle: saline 94 % of control | endpoint: mean survival time, dose: 3.75 mg/kg/injection, schedule: Q01DX009 (ip), vehicle: saline 96 % of control | endpoint: mean survival time, dose: 7.5 mg/kg/injection, schedule: Q01DX009 (ip), vehicle: saline 104 % of control | endpoint: mean survival time, dose: 15.0 mg/kg/injection, schedule: Q01DX009 (ip), vehicle: saline 104 % of control | endpoint: mean survival time, dose: 30.0 mg/kg/injection, schedule: Q01DX009 (ip), vehicle: saline 104 % of control

Nc1nnc2c3[nH]cnc3ncn12
inactive: endpoint: mean survival time, dose: 100.0 mg/kg/injection, schedule: Q01DX001 (ip), vehicle: Klucel (hydroxypropylcellulose) (HPC) 98 % of control | endpoint: mean survival time, dose: 200.0 mg/kg/injection, schedule: Q01DX001 (ip), vehicle: Klucel (hydroxypropylcellulose) (HPC) 95 % of control | endpoint: mean survival time, dose: 400.0 mg/kg/injection, schedule: Q01DX001 (ip), vehicle: Klucel (hydroxypropylcellulose) (HPC) 104 % of control

Cc1ccc(-n2c(O)c(N=Nc3ccccc3)c(=O)n(-c3ccc(C)cc3)c2=S)cc1
inactive: [1] 95 % of control | [2] 100 % of control | [3] 97 % of control

CC1/C=C/C=C/CC/C=C/C=C/C=C/C=C/C(OC2OC(C)C(O)C(N)C2O)CC2OC(CC(O)C(O)CCC(O)CC(O)CC(O)CC(=O)OC(C)C(C)C1O)CC(O)C2C(=O)O (configuration not stated)
inactive: endpoint: mean survival time, dose: 9.5 mg/kg/injection, schedule: Q01DX009 (ip), vehicle: saline sonified 95 % of control | endpoint: mean survival time, dose: 9.5 mg/kg/injection, schedule: Q04DX003 (ip), vehicle: saline sonified 98 % of control | endpoint: mean survival time, dose: 19.0 mg/kg/injection, schedule: Q01DX009 (ip), vehicle: saline sonified 93 % of control | endpoint: mean survival time, dose: 19.0 mg/kg/injection, schedule: Q04DX003 (ip), vehicle: saline sonified 92 % of control | endpoint: mean survival time, dose: 38.0 mg/kg/injection, schedule: Q01DX009 (ip), vehicle: saline sonified 87 % of control | endpoint: mean survival time, dose: 38.0 mg/kg/injection, schedule: Q04DX003 (ip), vehicle: saline sonified 100 % of control | endpoint: median survival time, dose: 6.25 mg/kg/injection, schedule: Q01DX009 (ip), vehicle: saline with Tween-80 100 % of control | endpoint: median survival time, dose: 12.5 mg/kg/injection, schedule: Q01DX009 (ip), vehicle: saline with Tween-80 100 % of control | endpoint: median survival time, dose: 25.0 mg/kg/injection, schedule: Q01DX009 (ip), vehicle: saline with Tween-80 102 % of control | endpoint: median survival time, dose: 50.0 mg/kg/injection, schedule: Q01DX009 (ip), vehicle: saline with Tween-80 101 % of control | endpoint: median survival time, dose: 100.0 mg/kg/injection, schedule: Q01DX009 (ip), vehicle: saline with Tween-80 100 % of control

Nc1nc(N)c(-c2ccc(Cl)c(Cl)c2)c(CCc2ccc(NC(=O)Nc3ccc(S(=O)(=O)F)cc3)cc2)n1
inactive: endpoint: mean survival time, dose: 50.0 mg/kg/injection, schedule: Q01DX001 (ip), vehicle: saline with Tween-80 91 % of control | [1] 91 % of control | [2] 94 % of control

O=C1c2ccccc2C(=O)c2c(Cl)cc(Cl)cc21
inactive: endpoint: mean survival time, dose: 75.0 mg/kg/injection, schedule: Q01DX001 (ip), vehicle: saline 103 % of control | endpoint: mean survival time, dose: 150.0 mg/kg/injection, schedule: Q01DX001 (ip), vehicle: saline 111 % of control | endpoint: mean survival time, dose: 300.0 mg/kg/injection, schedule: Q01DX001 (ip), vehicle: saline 102 % of control

CC(=O)OCC1OC(n2cnc3c(I)nc(I)nc32)C(OC(C)=O)C1OC(C)=O (configuration not stated)
inactive: endpoint: median survival time, dose: 25.0 mg/kg/injection, schedule: Q01DX005 (ip), vehicle: saline with Tween-80 105 % of control | endpoint: median survival time, dose: 50.0 mg/kg/injection, schedule: Q01DX005 (ip), vehicle: saline with Tween-80 95 % of control | endpoint: median survival time, dose: 100.0 mg/kg/injection, schedule: Q01DX005 (ip), vehicle: saline with Tween-80 96 % of control | endpoint: median survival time, dose: 200.0 mg/kg/injection, schedule: Q01DX005 (ip), vehicle: saline with Tween-80 95 % of control

COC(=O)C1C2CCC(COC(C)=O)(O2)C1C(=O)O (configuration not stated)
inactive: [1] 94 % of control | endpoint: mean survival time, dose: 100.0 mg/kg/injection, schedule: Q01DX009 (ip), vehicle: saline 96 % of control | [2] 97 % of control | endpoint: mean survival time, dose: 200.0 mg/kg/injection, schedule: Q01DX009 (ip), vehicle: saline 98 % of control | [3] 88 % of control

C/C=C/c1cc2c(c(=O)o1)C(=O)[C@@H](O)[C@H](C)O2
inactive: endpoint: mean survival time, dose: 6.25 mg/kg/injection, schedule: Q01DX009 (ip), vehicle: saline with Tween-80 101 % of control | endpoint: mean survival time, dose: 12.5 mg/kg/injection, schedule: Q01DX009 (ip), vehicle: saline with Tween-80 105 % of control | [4] 97 % of control | [5] 101 % of control | [6] 113 % of control

O=C(O)c1cc(Cl)nc(Cl)c1
inactive: [1] 94 % of control | [2] 97 % of control | [3] 92 % of control

C=CCNc1ncnc2c1cnn2C
inactive: endpoint: mean survival time, dose: 100.0 mg/kg/injection, schedule: Q04DX003 (ip), vehicle: saline 106 % of control | endpoint: mean survival time, dose: 200.0 mg/kg/injection, schedule: Q04DX003 (ip), vehicle: saline 104 % of control

N/C(=N\O)c1cn(C2OC(CO)C(O)C2O)c2ncnc(N)c12 (configuration not stated)
inactive: endpoint: mean survival time, dose: 8.0 mg/kg/injection, schedule: Q01DX007 (ip), vehicle: saline 111 % of control

CN(C)CC(C)(C)C(=O)c1ccccc1
inactive: endpoint: mean survival time, dose: 100.0 mg/kg/injection, schedule: Q04DX002 (ip), vehicle: saline 93 % of control

CC1(C)N=C(N)N=C(N)N1c1ccc(OCCCOc2ccc(S(=O)(=O)F)cc2)c(Cl)c1
inactive: [7] 104 % of control | [8] 98 % of control | endpoint: mean survival time, dose: 25.0 mg/kg/injection, schedule: Q01DX009 (ip), vehicle: saline 104 % of control

CC(=O)NC(CSCC(=O)c1ccccc1)C(=O)O (configuration not stated)
inactive: [9] 98 % of control | [10] 102 % of control | [11] 100 % of control

O[Si](O)([O][Sn]([c]1ccccc1)([c]1ccccc1)[c]1ccccc1)[O][Sn]([c]1ccccc1)([c]1ccccc1)[c]1ccccc1
inactive: endpoint: mean survival time, dose: 0.39 mg/kg/injection, schedule: Q01DX009 (ip), vehicle: saline 94 % of control | endpoint: mean survival time, dose: 0.78 mg/kg/injection, schedule: Q01DX009 (ip), vehicle: saline 94 % of control | endpoint: mean survival time, dose: 1.56 mg/kg/injection, schedule: Q01DX009 (ip), vehicle: saline 105 % of control | [7] 106 % of control | [8] 100 % of control

CN(C)N=Nc1c(F)cc(F)c(F)c1F
inactive: [4] 101 % of control | [5] 104 % of control | [6] 104 % of control

Cc1cc(S(N)(=O)=O)c(N)c(S(N)(=O)=O)c1
inactive: [9] 96 % of control | [10] 93 % of control | [11] 102 % of control

ClC1CCCC[N-]1.ClC1CCCC[N-]1.[Cl][Pt+2][Cl] (configuration not stated)
inactive: endpoint: mean survival time, dose: 12.5 mg/kg/injection, schedule: Q01DX009 (ip), vehicle: Klucel (hydroxypropylcellulose) (HPC) 103 % of control | endpoint: mean survival time, dose: 25.0 mg/kg/injection, schedule: Q01DX009 (ip), vehicle: Klucel (hydroxypropylcellulose) (HPC) 100 % of control | endpoint: mean survival time, dose: 50.0 mg/kg/injection, schedule: Q01DX009 (ip), vehicle: Klucel (hydroxypropylcellulose) (HPC) 95 % of control | endpoint: mean survival time, dose: 100.0 mg/kg/injection, schedule: Q01DX009 (ip), vehicle: Klucel (hydroxypropylcellulose) (HPC) 94 % of control | endpoint: mean survival time, dose: 200.0 mg/kg/injection, schedule: Q01DX009 (ip), vehicle: Klucel (hydroxypropylcellulose) (HPC) 97 % of control

CCCC(C)(C)c1ccccc1
inactive: [5] 104 % of control | [6] 96 % of control | [12] 89 % of control

CSc1ccccc1C(C)(C)C(=O)O
inactive: [9] 105 % of control | [10] 105 % of control | [11] 96 % of control

CC(=O)NC1CCCCC1
inactive: [6] 104 % of control | [12] 102 % of control

CCCCOC(=O)c1n[nH]c(C)c1N=NN1CCOCC1
inactive: endpoint: mean survival time, dose: 75.0 mg/kg/injection, schedule: Q01DX001 (ip), vehicle: other 105 % of control | endpoint: mean survival time, dose: 150.0 mg/kg/injection, schedule: Q01DX001 (ip), vehicle: other 97 % of control | endpoint: mean survival time, dose: 300.0 mg/kg/injection, schedule: Q01DX001 (ip), vehicle: other 103 % of control

O=c1[nH][nH]c(=O)c2c1ncn2C1OC(CO)C(O)C1O (configuration not stated)
inactive: endpoint: mean survival time, dose: 12.5 mg/kg/injection, schedule: Q01DX005 (ip), vehicle: water 101 % of control | endpoint: mean survival time, dose: 25.0 mg/kg/injection, schedule: Q01DX005 (ip), vehicle: water 100 % of control | endpoint: mean survival time, dose: 50.0 mg/kg/injection, schedule: Q01DX005 (ip), vehicle: water 101 % of control | endpoint: mean survival time, dose: 100.0 mg/kg/injection, schedule: Q01DX005 (ip), vehicle: water 101 % of control | endpoint: mean survival time, dose: 200.0 mg/kg/injection, schedule: Q01DX005 (ip), vehicle: water 100 % of control
